Measured values published in paper PMC5218480 (PLoS ONE, 2017).

Test system: MV-4-11 cells
Assay: Gene expression microarray analysis (Affymetrix PrimeView) and GSEA
Type: cell-based, human
Set-up: RFU PODN (11730768_x_at) / Fold change /veh PODN (11730768_x_at) / RFU LINC00158 (11744669_a_at) / Fold change /veh LINC00158 (11744669_a_at) / RFU DUSP10 (11751237_a_at) / Fold change /veh DUSP10 (11751237_a_at) / RFU ID3 (11757404_x_at) / Fold change /veh ID3 (11757404_x_at) / RFU PLEKHG5 (11737974_s_at) / Fold change /veh PLEKHG5 (11737974_s_at) / RFU LRRC4B (11730491_at) / Fold change /veh LRRC4B (11730491_at) / RFU GIMAP4 (11747438_a_at) / Fold change /veh GIMAP4 (11747438_a_at) / RFU KRT8 (11758183_x_at) / Fold change /veh KRT8 (11758183_x_at) / RFU CNN1 (11734310_a_at) / Fold change /veh CNN1 (11734310_a_at) / RFU VPS37D (11726825_at) / Fold change /veh VPS37D (11726825_at) / RFU C10orf10 (11716522_x_at) / Fold change /veh C10orf10 (11716522_x_at) / RFU KIR2DL2 /// KIR2DL4 /// KIR2DL5A /// KIR2DL5B /// KIR2DS1 /// KIR2DS2 /// KIR2DS3 /// KIR2DS4 /// KIR3DL3 /// KIR3DL3 /// KIR3DS1 (11738374_at) / Fold change /veh KIR2DL2 /// KIR2DL4 /// KIR2DL5A /// KIR2DL5B /// KIR2DS1 /// KIR2DS2 /// KIR2DS3 /// KIR2DS4 /// KIR3DL3 /// KIR3DL3 /// KIR3DS1 (11738374_at) / RFU C1QL1 (11718748_at) / Fold change /veh C1QL1 (11718748_at) / RFU TMPRSS4 (11747572_a_at) / Fold change /veh TMPRSS4 (11747572_a_at) / RFU HAMP (11756126_x_at) / Fold change /veh HAMP (11756126_x_at) / RFU RNFT2 (11725882_a_at) / Fold change /veh RNFT2 (11725882_a_at) / RFU NR4A2 (11747474_a_at) / Fold change /veh NR4A2 (11747474_a_at) / RFU ABCC12 (11746883_a_at) / Fold change /veh ABCC12 (11746883_a_at) / RFU TMEM136 (11760407_x_at) / Fold change /veh TMEM136 (11760407_x_at) / RFU CLDN22 /// WWC2 (11732394_at) / Fold change /veh CLDN22 /// WWC2 (11732394_at) / RFU HLA-DPB1 (11760878_x_at) / Fold change /veh HLA-DPB1 (11760878_x_at) / RFU SPINT1 (11716480_a_at) / Fold change /veh SPINT1 (11716480_a_at) / RFU GAP43 (11754022_s_at) / Fold change /veh GAP43 (11754022_s_at) / RFU A4GNT (11735810_at) / Fold change /veh A4GNT (11735810_at) / RFU PRB3 (11715151_x_at) / Fold change /veh PRB3 (11715151_x_at) / RFU TUBB4B (11761932_at) / Fold change /veh TUBB4B (11761932_at) / RFU CAPN14 (11732068_a_at) / Fold change /veh CAPN14 (11732068_a_at) / RFU TMCC2 (11721928_a_at) / Fold change /veh TMCC2 (11721928_a_at) / RFU IRGQ (11745062_a_at) / Fold change /veh IRGQ (11745062_a_at) / RFU FAM174B (11720279_a_at) / Fold change /veh FAM174B (11720279_a_at) / RFU TMPRSS4 (11748680_a_at) / Fold change /veh TMPRSS4 (11748680_a_at) / RFU FAM212B (11763350_a_at) / Fold change /veh FAM212B (11763350_a_at) / RFU PLEKHG5 (11743358_a_at) / Fold change /veh PLEKHG5 (11743358_a_at) / RFU ZSCAN30 (11745921_a_at) / Fold change /veh ZSCAN30 (11745921_a_at) / RFU CMKLR1 (11741424_a_at) / Fold change /veh CMKLR1 (11741424_a_at) / RFU LOC101060620 /// MAPK8IP1 (11723275_at) / Fold change /veh LOC101060620 /// MAPK8IP1 (11723275_at) / RFU SPTSSB (11747773_x_at) / Fold change /veh SPTSSB (11747773_x_at) / RFU PRSS12 (11739890_at) / Fold change /veh PRSS12 (11739890_at) / RFU BIN1 (11741810_x_at) / Fold change /veh BIN1 (11741810_x_at) / RFU WNT11 (11732464_a_at) / Fold change /veh WNT11 (11732464_a_at) / RFU C10orf10 (11716521_a_at) / Fold change /veh C10orf10 (11716521_a_at) / RFU C5orf56 (11738089_at) / Fold change /veh C5orf56 (11738089_at) / RFU CYB561 (11721691_x_at) / Fold change /veh CYB561 (11721691_x_at) / RFU ANKRD19P (11752326_a_at) / Fold change /veh ANKRD19P (11752326_a_at) / RFU OR2T12 /// OR2T33 /// OR2T8 (11738714_s_at) / Fold change /veh OR2T12 /// OR2T33 /// OR2T8 (11738714_s_at) / RFU VCAN (11748164_a_at) / Fold change /veh VCAN (11748164_a_at) / RFU JSRP1 (11732532_at) / Fold change /veh JSRP1 (11732532_at) / RFU KRTAP10-11 (11738290_x_at) / Fold change /veh KRTAP10-11 (11738290_x_at) / RFU MYO3A (11730013_a_at) / Fold change /veh MYO3A (11730013_a_at) / RFU EBF3 (11725865_a_at) / Fold change /veh EBF3 (11725865_a_at) / RFU CAMK2N1 (11719241_x_at) / Fold change /veh CAMK2N1 (11719241_x_at) / RFU C5orf56 (11738088_a_at) / Fold change /veh C5orf56 (11738088_a_at) / RFU OLFML3 (11715873_a_at) / Fold change /veh OLFML3 (11715873_a_at) / RFU LOC100653217 /// NTM (11731650_a_at) / Fold change /veh LOC100653217 /// NTM (11731650_a_at) / RFU MAPK11 (11762145_a_at) / Fold change /veh MAPK11 (11762145_a_at) / RFU FIZ1 (11724087_x_at) / Fold change /veh FIZ1 (11724087_x_at) / RFU OASL (11726364_x_at) / Fold change /veh OASL (11726364_x_at) / RFU SOX15 (11748057_x_at) / Fold change /veh SOX15 (11748057_x_at) / RFU CD79A (11719716_a_at) / Fold change /veh CD79A (11719716_a_at) / RFU HIST1H1D (11736915_at) / Fold change /veh HIST1H1D (11736915_at) / RFU CASKIN2 (11723855_a_at) / Fold change /veh CASKIN2 (11723855_a_at) / RFU LOC730098 (11760151_x_at) / Fold change /veh LOC730098 (11760151_x_at) / RFU OR4N2 (11742367_at) / Fold change /veh OR4N2 (11742367_at) / RFU PRRT2 (11749266_a_at) / Fold change /veh PRRT2 (11749266_a_at) / RFU SNX32 (11753110_a_at) / Fold change /veh SNX32 (11753110_a_at) / RFU CDHR5 (11726645_a_at) / Fold change /veh CDHR5 (11726645_a_at) / RFU RCAN1 (11760418_a_at) / Fold change /veh RCAN1 (11760418_a_at) / RFU FAM167A (11723789_a_at) / Fold change /veh FAM167A (11723789_a_at) / RFU FAM26E (11764081_at) / Fold change /veh FAM26E (11764081_at) / RFU ISYNA1 (11749810_s_at) / Fold change /veh ISYNA1 (11749810_s_at) / RFU ACY1 (11761880_at) / Fold change /veh ACY1 (11761880_at) / RFU 11764098_at / Fold change /veh 11764098_at / RFU SAMD14 (11745864_x_at) / Fold change /veh SAMD14 (11745864_x_at) / RFU NPB (11741838_a_at) / Fold change /veh NPB (11741838_a_at) / RFU TMPRSS6 (11731388_a_at) / Fold change /veh TMPRSS6 (11731388_a_at) / RFU KRTAP10-2 (11738614_at) / Fold change /veh KRTAP10-2 (11738614_at) / RFU ARHGAP8 /// PRR5-ARHGAP8 (11727945_x_at) / Fold change /veh ARHGAP8 /// PRR5-ARHGAP8 (11727945_x_at) / RFU KRTAP5-7 /// NADSYN1 (11734609_at) / Fold change /veh KRTAP5-7 /// NADSYN1 (11734609_at) / RFU RASL12 (11751679_a_at) / Fold change /veh RASL12 (11751679_a_at) / RFU CDKN2B (11736163_a_at) / Fold change /veh CDKN2B (11736163_a_at) / RFU PRF1 (11729649_at) / Fold change /veh PRF1 (11729649_at) / RFU, ZNF638 /// ZNF638-IT1 / Fold change vs veh, ZNF638 /// ZNF638-IT1 / RFU, PANK3 / Fold change vs veh, PANK3 / RFU, SH3YL1 / Fold change vs veh, SH3YL1 / RFU, ZEB2 / Fold change vs veh, ZEB2 / RFU, NRIP1 / Fold change vs veh, NRIP1 / RFU, PTTG1IP / Fold change vs veh, PTTG1IP / RFU, CAPN2 / Fold change vs veh, CAPN2 / RFU, MED14 / Fold change vs veh, MED14 / RFU, SNORA58 / Fold change vs veh, SNORA58 / RFU, C1orf63 / Fold change vs veh, C1orf63 / RFU, LRRFIP1 / Fold change vs veh, LRRFIP1 / RFU, NDUFAF7 / Fold change vs veh, NDUFAF7 / RFU, SLC12A2 / Fold change vs veh, SLC12A2 / RFU, IBTK / Fold change vs veh, IBTK / RFU, ESF1 / Fold change vs veh, ESF1 / Fold change vs veh, TMEM50B / RFU, TAOK1 / Fold change vs veh, TAOK1 / RFU, ACBD3 / Fold change vs veh, ACBD3 / RFU, TMA16 / Fold change vs veh, TMA16 / RFU, RWDD3 / Fold change vs veh, RWDD3 / RFU, BCAT1 / Fold change vs veh, BCAT1 / RFU, EDEM3 / Fold change vs veh, EDEM3 / RFU, TMEM33 / Fold change vs veh, TMEM33 / RFU, WDR75 / Fold change vs veh, WDR75 / RFU, AHCTF1 / Fold change vs veh, AHCTF1 / RFU, TFRC / Fold change vs veh, TFRC / RFU, ZDHHC17 / Fold change vs veh, ZDHHC17 / RFU, NOM1 / Fold change vs veh, NOM1 / RFU, ARL8B / Fold change vs veh, ARL8B / RFU, ZBTB11 / Fold change vs veh, ZBTB11 / RFU, TAMM41 / Fold change vs veh, TAMM41 / RFU, KIAA1704 /// LOC100996395 / Fold change vs veh, KIAA1704 /// LOC100996395 / RFU, ING1 / Fold change vs veh, ING1 / RFU, TRMT61B / Fold change vs veh, TRMT61B / RFU, FUBP3 / Fold change vs veh, FUBP3 / RFU, TP53 / Fold change vs veh, TP53 / RFU, TNKS2 / Fold change vs veh, TNKS2 / RFU, ZFP14 / Fold change vs veh, ZFP14 / RFU, ACTR2 / Fold change vs veh, ACTR2 / RFU, PPP3R1 / Fold change vs veh, PPP3R1 / RFU, PIK3R1 / Fold change vs veh, PIK3R1 / RFU, HNRNPA1 / Fold change vs veh, HNRNPA1 / RFU, RNF170 / Fold change vs veh, RNF170 / RFU, ZNF28 / Fold change vs veh, ZNF28 / RFU, RNGTT / Fold change vs veh, RNGTT / RFU, OGT / Fold change vs veh, OGT / RFU, BRD1 / Fold change vs veh, BRD1 / RFU, MARS / Fold change vs veh, MARS / RFU, ZNF655 / Fold change vs veh, ZNF655 / RFU, FAHD1 / Fold change vs veh, FAHD1 / RFU, BDP1 / Fold change vs veh, BDP1 / RFU, LRRCC1 / Fold change vs veh, LRRCC1 / RFU, ARID1A / Fold change vs veh, ARID1A / RFU, ZNF146 / Fold change vs veh, ZNF146 / RFU, ZNF330 / Fold change vs veh, ZNF330 / RFU, GPN3 / Fold change vs veh, GPN3 / RFU, C9orf123 / Fold change vs veh, C9orf123 / RFU, N4BP2L2 / Fold change vs veh, N4BP2L2 / RFU, ARFIP1 / Fold change vs veh, ARFIP1 / RFU, FAM179B / Fold change vs veh, FAM179B / RFU, BCL10 / Fold change vs veh, BCL10 / RFU, UHRF1BP1L / Fold change vs veh, UHRF1BP1L / RFU, BET1 / Fold change vs veh, BET1 / RFU, CNOT2 / Fold change vs veh, CNOT2 / RFU, ZNF268 / Fold change vs veh, ZNF268 / Fold change vs veh, ZNF507 / RFU, DGCR2 / Fold change vs veh, DGCR2 / RFU, WDSUB1 / Fold change vs veh, WDSUB1 / Fold change vs veh, HSP90B1 /// MIR3652 / RFU, ADSS / Fold change vs veh, ADSS / RFU, GK / Fold change vs veh, GK / RFU, ZNF148 / Fold change vs veh, ZNF148 / RFU, TAF9 / Fold change vs veh, TAF9 / RFU, SLC1A5 / Fold change vs veh, SLC1A5 / RFU, SLMO2 / Fold change vs veh, SLMO2 / RFU, ABCC4 / Fold change vs veh, ABCC4 / RFU, LOC101060439 /// RAP1B / Fold change vs veh, LOC101060439 /// RAP1B / RFU, RFX7 / Fold change vs veh, RFX7 / RFU, GTPBP10 / Fold change vs veh, GTPBP10 / RFU, CNEP1R1 / Fold change vs veh, CNEP1R1 / RFU, BIVM-ERCC5 /// ERCC5 / Fold change vs veh, BIVM-ERCC5 /// ERCC5 / RFU, ILF3 / Fold change vs veh, ILF3 / RFU 11762660_at / Fold change /veh 11762660_at / RFU VCAN (11757783_s_at) / Fold change /veh VCAN (11757783_s_at) / RFU DDX43 (11728927_at) / Fold change /veh DDX43 (11728927_at) / RFU KRT8 (11758188_x_at) / Fold change /veh KRT8 (11758188_x_at) / RFU NKD1 (11759106_at) / Fold change /veh NKD1 (11759106_at) / RFU SRD5A1 (11742802_a_at) / Fold change /veh SRD5A1 (11742802_a_at) / RFU TPSAB1 /// TPSB2 (11721975_s_at) / Fold change /veh TPSAB1 /// TPSB2 (11721975_s_at) / RFU GSTM3 (11746129_a_at) / Fold change /veh GSTM3 (11746129_a_at) / RFU IL23R (11737362_x_at) / Fold change /veh IL23R (11737362_x_at) / RFU TMEM51 (11727254_a_at) / Fold change /veh TMEM51 (11727254_a_at) / RFU PIWIL2 (11732686_x_at) / Fold change /veh PIWIL2 (11732686_x_at) / RFU ORM1 (11744905_x_at) / Fold change /veh ORM1 (11744905_x_at) / RFU CCDC152 (11743942_at) / Fold change /veh CCDC152 (11743942_at) / RFU ECM1 (11717891_a_at) / Fold change /veh ECM1 (11717891_a_at) / RFU IL23R (11748794_a_at) / Fold change /veh IL23R (11748794_a_at) / RFU TNFAIP8L3 (11732012_x_at) / Fold change /veh TNFAIP8L3 (11732012_x_at) / RFU MBOAT4 (11741988_at) / Fold change /veh MBOAT4 (11741988_at) / RFU 11764193_at / Fold change /veh 11764193_at / RFU TMEM53 (11763286_at) / Fold change /veh TMEM53 (11763286_at) / RFU MAGEB2 (11727129_at) / Fold change /veh MAGEB2 (11727129_at) / RFU TMEM200A (11744735_a_at) / Fold change /veh TMEM200A (11744735_a_at) / RFU CCDC152 (11751479_a_at) / Fold change /veh CCDC152 (11751479_a_at) / RFU FAM211A (11726209_a_at) / Fold change /veh FAM211A (11726209_a_at) / RFU RGS16 (11746705_a_at) / Fold change /veh RGS16 (11746705_a_at) / RFU VCAN (11755009_s_at) / Fold change /veh VCAN (11755009_s_at) / RFU RHOB (11743442_s_at) / Fold change /veh RHOB (11743442_s_at) / RFU RGS16 (11720943_a_at) / Fold change /veh RGS16 (11720943_a_at) / RFU RGS16 (11720944_at) / Fold change /veh RGS16 (11720944_at) / RFU, VPS4B / Fold change vs veh, VPS4B / RFU, CREB1 / Fold change vs veh, CREB1 / RFU, DNAJC13 / Fold change vs veh, DNAJC13 / RFU, GNAQ / Fold change vs veh, GNAQ / RFU, CDK5R1 / Fold change vs veh, CDK5R1 / RFU, ZRANB3 / Fold change vs veh, ZRANB3 / RFU, CUL4A / Fold change vs veh, CUL4A / RFU, CCNY / Fold change vs veh, CCNY / RFU, UFL1 / Fold change vs veh, UFL1 / RFU, COG3 / Fold change vs veh, COG3 / RFU, DIAPH2 / Fold change vs veh, DIAPH2 / RFU, SKA2 / Fold change vs veh, SKA2 / RFU, AFF3 / Fold change vs veh, AFF3 / RFU, LMF1 / Fold change vs veh, LMF1 / RFU, IPO11 / Fold change vs veh, IPO11 / RFU, DFFB / Fold change vs veh, DFFB / RFU, FOXP1 / Fold change vs veh, FOXP1 / RFU, CARD8 / Fold change vs veh, CARD8 / RFU, STRN3 / Fold change vs veh, STRN3 / RFU, ADK / Fold change vs veh, ADK / RFU, RASSF2 / Fold change vs veh, RASSF2 / RFU, WIPF1 / Fold change vs veh, WIPF1 / RFU, LARP1B / Fold change vs veh, LARP1B / RFU, RASA1 / Fold change vs veh, RASA1 / RFU, RB1 / Fold change vs veh, RB1 / RFU, PPFIA1 / Fold change vs veh, PPFIA1 / RFU, MAT2A / Fold change vs veh, MAT2A / RFU, CCT5 / Fold change vs veh, CCT5 / RFU, WDR92 / Fold change vs veh, WDR92 / RFU, CUX1 / Fold change vs veh, CUX1 / RFU, TTC7A / Fold change vs veh, TTC7A / RFU, TMEM135 / Fold change vs veh, TMEM135 / RFU, DEPTOR / Fold change vs veh, DEPTOR / RFU, CPM / Fold change vs veh, CPM / RFU, DNAJB6 / Fold change vs veh, DNAJB6 / RFU, CACNA2D3 / Fold change vs veh, CACNA2D3 / RFU, DTX4 / Fold change vs veh, DTX4 / RFU, TFCP2 / Fold change vs veh, TFCP2 / RFU, GMCL1 /// GMCL1P1 / Fold change vs veh, GMCL1 /// GMCL1P1 / RFU, AEBP2 / Fold change vs veh, AEBP2 / RFU, SNHG1 /// SNORD22 /// SNORD25 /// SNORD26 /// SNORD27 /// SNORD28 /// SNORD29 /// SNORD31 / Fold change vs veh, SNHG1 /// SNORD22 /// SNORD25 /// SNORD26 /// SNORD27 /// SNORD28 /// SNORD29 /// SNORD31 / Fold change (Aza/veh), C12orf56 (ProbeSet 11735607_a_at) / Fold change (ACY-1035/veh), C12orf56 (ProbeSet 11735607_a_at) / Fold change (Aza/veh), FGFR1OP (ProbeSet 11751329_s_at) / Fold change (ACY-1035/veh), FGFR1OP (ProbeSet 11751329_s_at) / Fold change (Aza/veh), VPS36 (ProbeSet 11739960_a_at) / Fold change (ACY-1035/veh), VPS36 (ProbeSet 11739960_a_at) / RFU SYPL1 (11715823_x_at) / Fold change /veh SYPL1 (11715823_x_at) / RFU IGFBP7 (11715501_s_at) / Fold change /veh IGFBP7 (11715501_s_at) / RFU REEP3 (11722064_at) / Fold change /veh REEP3 (11722064_at) / RFU IGLL1 (11728026_x_at) / Fold change /veh IGLL1 (11728026_x_at): dose or concentration left out as unconfirmed
Settings: ProbeSet 11716331_a_at; LIST D

Nc1ncn([C@@H]2O[C@H](CO)[C@@H](O)[C@H]2O)c(=O)n1 [azacitidine]
Fold change vs veh, DNAJB6: 0.52
